Target: T1, human HDAC1 (Homo sapiens, UniProt Q13547)
T1 construct: Full length human HDAC1-FLAG was stably expressed in HEK-293F cells; host or cells: HEK-293F cells
Test: Human HDAC enzyme inhibitor Fluor-de-Lys assay, HDAC1
Format: biochemical
Conditions: 0.3 nM enzyme, 20 μM substrate BML-KI104, 3 h pre-incubation, 60 min reaction; read-out: HDAC1_IC50
Text: Recombinant human HDAC8 (catalog number BML-SE145-0100) and HDAC10 (catalog number BML-SE559-0050) enzymes, HDAC substrates BML-KI104 and BML-KI178, and HDAC developer solutions BML-KI105 and BML-KI176 were purchased from Enzo Life Sciences (Farmingdale, NY). Recombinant human HDAC5 and HDAC11 were purchased from BPS Bioscience (San Diego, CA)(catalog numbers 50045 and 50021). Substrate Boc-Lys(TFA)-AMC was obtained from Bachem (Bupendorf, Switzerland) (catalog number 1-1985). HDAC inhibitor suberoylanilide hydroxamic acid (SAHA) was obtained from Indofine (Hillsborough Township, NJ) and trichostatin A (TSA) was obtained from Sigma-Aldrich (St. Louis, MO). […] HEPES pH 8.0 was obtained from Boston BioProducts (Ashland, MA), Tween-20 from Fisher Scientific (Hampton, NH)(catalog number BP337), TCEP from Calbiochem and 7.5% bovine serum albumin (BSA) from Life Technologies (Carlsbad, CA) (catalog number 15260037). 384-well, black assay plates were obtained from Corning (Corning, NY) (catalog number 3575).
Recombinant human HDAC1, HDAC2, and HDAC3/SMRT heterodimer were prepared by Merck Research Laboratories. […] The eluted protein was then passed over an anti-HDAC1 immunoaffinity column to remove any complexes containing HDAC1. […]
The histone deacetylase activities of HDAC1, HDAC2, HDAC3, HDAC6, and HDAC8 were measured in modified Fluor-de-Lys assays in 384-well format. In this assay, HDAC enzymes are initially incubated with an ε-acetyl (or -trifluoroacetyl)-L-lysine-containing substrate with a C-terminal amide having aminomethylcoumarin as the amine component. HDACs cleave the ε-acetyl group, rendering the resulting product susceptible to AMC cleavage by trypsin. The released AMC is then detected by its fluorescence.
The HDAC 1, 2 assays employed buffer A, which contained 20 mM HEPES, pH 8.0, 1 mM MgCl2, 137 mM NaCl, 2.7 mM KCl, 0.05% BSA. The HDAC3/SMRT assay employed buffer B, consisting of 20 mM HEPES, pH 8.0, 1 mM MgCl2, 50 mM NaCl, 2.7 mM KCl, 0.05% BSA, 0.005% Tween 20, and 10 μM IP4. The HDAC6 assay employed buffer C, consisting of 20 mM HEPES, pH 8.0, 1 mM MgCl2, 137 mM NaCl, 2.7 mM KCl, 0.5 mM TCEP (Calbiochem) and 0.05% BSA. The HDAC8 assay employed buffer D, consisting of 20 mM HEPES, pH 8.0, 1 mM MgCl2, 100 mM NaCl, 20 mM KCl, 0.1% n-octyl-β-D-glucoside (Anatrace, Maumee, OH) and 0.05% BSA. All steps were performed at room temperature (23° C.). The assay was performed by pre-incubating serial dilutions of test compounds with the target HDAC prior to initiation with substrate. Each compound was titrated in a 10-point dose response, using a 1:3 fold dilution scheme, with 0.15 ul of solution added by ECHO555 to the plate, followed by the addition of 20 μl of the appropriate HDAC isoform diluted in appropriate assay buffer. […] Final conditions used for each assay were: 1. HDAC 1, 0.3 nM total enzyme, 20 μM substrate BML-K1104; 2. HDAC 2, 1.5 nM total enzyme, 40 μM substrate BML-K1104; 3. HDAC 3/SMRT, 0.3 nM total enzyme, 20 μM substrate BML-K1104; 4. HDAC 6, 1.3 nM total enzyme, 2.5 μM substrate BML-K1104; 5. HDAC 8, 1.3 nM total enzyme, 200 μM substrate BML-K1178; the final high dose of test compound was 30 μM. […] The reactions were stopped and developed by addition of 30 ul of HDAC developer solution containing a saturating level of HDAC inhibitor as follows: 1.

T1 sequence (Q13547 whole entry): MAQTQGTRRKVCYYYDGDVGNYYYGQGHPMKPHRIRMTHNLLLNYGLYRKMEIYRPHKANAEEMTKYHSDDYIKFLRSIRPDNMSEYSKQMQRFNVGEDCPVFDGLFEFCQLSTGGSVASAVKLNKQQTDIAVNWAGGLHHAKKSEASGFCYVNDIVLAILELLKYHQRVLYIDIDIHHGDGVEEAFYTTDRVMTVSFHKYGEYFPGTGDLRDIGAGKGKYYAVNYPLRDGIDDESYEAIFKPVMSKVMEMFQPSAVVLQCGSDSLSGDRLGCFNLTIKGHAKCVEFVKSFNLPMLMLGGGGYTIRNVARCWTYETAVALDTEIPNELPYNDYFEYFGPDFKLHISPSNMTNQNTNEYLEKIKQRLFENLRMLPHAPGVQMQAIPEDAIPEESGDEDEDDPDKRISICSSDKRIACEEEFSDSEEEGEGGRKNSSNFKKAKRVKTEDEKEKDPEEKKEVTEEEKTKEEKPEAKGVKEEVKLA

SMILES	IC50 [nM]
COc1nc2ccccc2cc1-c1cnc([C@@H](N)COCCCC(=O)c2ncco2)[nH]1 [Compound 1, (R)-4-(2-amino-2-(5-(2-methoxyquinolin-3-yl)-1H-imidazol-2-yl)ethoxy)-1-(oxazol-2-yl)butan-1-one]	288
N[C@@H](COCCCC(=O)c1ccon1)c1ncc(-c2ccccc2F)[nH]1 [Compound 2, (R)-4-(2-amino-2-(5-(2-fluorophenyl)-1H-imidazol-2-yl)ethoxy)-1-(isoxazol-3-yl)butan-1-one]	602
CNC(=O)C(=O)CCCOC[C@H](NC(=O)c1cncs1)c1ncc(-c2cc3ccccc3nc2OC)[nH]1 [Compound 8, N-[(1R)-1-[5-(2-methoxyquinolin-3-yl)-1H-imidazol-2-yl]-2-{[5-(methylamino)-4,5-dioxopentyl]oxy}ethyl]-1,3-thiazole-5-carboxamide]	1.5
CNC(=O)C(=O)CCCOC[C@H](NC(=O)C12CCN(CC1)CC2)c1ncc(-c2cc3ccccc3nc2OC)[nH]1 [Compound 9, N-[(1R)-1-[5-(2-methoxyquinolin-3-yl)-1H-imidazol-2-yl]-2-{[5-(methylamino)-4,5-dioxopentyl]oxy}ethyl]-1-azabicyclo[2.2.2]octane-4-carboxamide]	1.5
COc1nc2ccccc2cc1-c1cnc([C@H](COCCCC(=O)c2ncco2)NC(=O)c2cncs2)[nH]1 [Compound 10, N-{(1R)-1-[5-(2-methoxyquinolin-3-yl)-1H-imidazol-2-yl]-2-[4-(1,3-oxazol-2-yl)-4-oxobutoxy]ethyl}-1,3-thiazole-5-carboxamide]	6.6
COc1nc2ccccc2cc1-c1cnc([C@H](COCCCC(=O)c2ncco2)NC(=O)[C@H]2CC23CCN(C)CC3)[nH]1 [Compound 11, (1S)-N-{(1R)-1-[5-(2-methoxyquinolin-3-yl)-1H-imidazol-2-yl]-2-[4-(1,3-oxazol-2-yl)-4-oxobutoxy]ethyl}-6-methyl-6-azaspiro[2.5]octane-1-carboxamide]	2.1
COc1nc2ccccc2cc1-c1cnc([C@H](COCCCC(=O)c2ncco2)NC(=O)C23CCN(CC2)CC3)[nH]1 [Compound 12, N-{(1R)-1-[5-(2-methoxyquinolin-3-yl)-1H-imidazol-2-yl]-2-[4-(1,3-oxazol-2-yl)-4-oxobutoxy]ethyl}-1-azabicyclo[2.2.2]octane-4-carboxamide]	4.7
COc1nc2ccccc2cc1-c1cnc([C@H](COCCCC(=O)c2ncco2)NC(=O)CN(C)C)[nH]1 [Compound 13, N-{(1R)-1-[5-(2-methoxyquinolin-3-yl)-1H-imidazol-2-yl]-2-[4-(1,3-oxazol-2-yl)-4-oxobutoxy]ethyl}-N~2~,N~2~- dimethylglycinamide]	2.7
COc1nc2ccccc2cc1-c1cnc([C@H](COCCCC(=O)c2ccon2)NC(=O)CN(C)C)[nH]1 [Compound 14, N-{(1R)-2-(4-isoxazol-3-yl-4-oxobutoxy)-1-[5-(2-methoxyquinolin-3-yl)-1H-imidazol-2-yl]ethyl}-N~2~,N~2~- dimethylglycinamide]	1.5
CN1CC(C(=O)N[C@@H](COCCCC(=O)c2ccon2)c2ncc(-c3ccccc3F)[nH]2)C1 [Compound 15, N-[(1R)-1-[5-(2-fluorophenyl)-1H-imidazol-2-yl]-2-(4-isoxazol-3-yl-4-oxobutoxy)ethyl]-1-methylazetidine-3-carboxamide]	4
CN1CC(C(=O)N[C@@H](COCCCC(=O)c2ccon2)c2[nH]c(-c3ccc(F)cc3)nc2Cl)C1 [Compound 16, N-[(1R)-1-[4-chloro-2-(4-fluorophenyl)-1H-imidazol-5-yl]-2-(4-isoxazol-3-yl-4-oxobutoxy)ethyl]-1-methylazetidine-3-carboxamide]	11.8
CN(C)CC(=O)N[C@@H](COCCCC(=O)c1ccon1)c1[nH]c(-c2ccc(F)cc2)nc1Cl [Compound 17, N-[(1R)-1-[4-chloro-2-(4-fluorophenyl)-1H-imidazol-5-yl]-2-(4-isoxazol-3-yl-4-oxobutoxy)ethyl]-N~2~,N~2~- dimethylglycinamide]	18.6
CN1CCC2(CC1)C[C@@H]2C(=O)N[C@@H](COCCCC(=O)c1ccon1)c1[nH]c(-c2ccc(F)cc2)nc1Cl [Compound 18, (1S)-N-[(1R)-1-[4-chloro-2-(4-fluorophenyl)-1H-imidazol-5-yl]-2-(4-isoxazol-3-yl-4-oxobutoxy)ethyl]-6-methyl-6-azaspiro[2.5]octane-1-carboxamide]	1.4
COc1cc2nc(C)ccc2cc1-c1cnc([C@H](COCCCC(=O)c2cc(C)on2)NC(=O)C2CN(C)C2)[nH]1 [Compound 19, N-{(1R)-1-[5-(7-methoxy-2-methylquinolin-6-yl)-1H-imidazol-2-yl]-2-[4-(5-methylisoxazol-3-yl)-4-oxobutoxy]ethyl}-1-methylazetidine-3-carboxamide]	6.9
COc1cc2nc(C)ccc2cc1-c1cnc([C@H](COCCCC(=O)c2cc(C)on2)NC(=O)[C@H]2CC23CCN(C)CC3)[nH]1 [Compound 20, (1S)-N-{(1R)-1-[5-(7-methoxy-2-methylquinolin-6-yl)-1H-imidazol-2-yl]-2-[4-(5-methylisoxazol-3-yl)-4-oxobutoxy]ethyl}-6-methyl-6-azaspiro[2.5]octane-1-carboxamide]	3.7
Cc1ccc2cc(-c3cnc([C@H](CSCCCC(=O)c4ncco4)NC(=O)[C@H]4CC45CCN(C)CC5)[nH]3)ccc2n1 [Compound 21, (1S)-6-methyl-N-[(1R)-1-[5-(2-methylquinolin-6-yl)-1H-imidazol-2-yl]-2-{[4-(1,3-oxazol-2-yl)-4-oxobutyl]sulfanyl}ethyl]-6-azaspiro[2.5]octane-1-carboxamide]	1.5

Reference: patent publication US12365674B2, “Inhibitors of histone deacetylase useful for the treatment or prevention of HIV infection” (Merck Sharp & Dohme LLC, priority 2019, dated 2025)
